This passage reports IC50 and EC50 results from patent US8178530B2, “Imidazolopyrazine compounds useful for the treatment of degenerative and inflammatory diseases” (Janssen Pharmaceutica NV, priority 2006, dated 2012).

For one assay, the target named is T1, MAPKAPK5 (Homo sapiens, UniProt Q8IW41).
T1 construct: 1 mU MAPKAP-K5
T1 sequence (Q8IW41 1-473): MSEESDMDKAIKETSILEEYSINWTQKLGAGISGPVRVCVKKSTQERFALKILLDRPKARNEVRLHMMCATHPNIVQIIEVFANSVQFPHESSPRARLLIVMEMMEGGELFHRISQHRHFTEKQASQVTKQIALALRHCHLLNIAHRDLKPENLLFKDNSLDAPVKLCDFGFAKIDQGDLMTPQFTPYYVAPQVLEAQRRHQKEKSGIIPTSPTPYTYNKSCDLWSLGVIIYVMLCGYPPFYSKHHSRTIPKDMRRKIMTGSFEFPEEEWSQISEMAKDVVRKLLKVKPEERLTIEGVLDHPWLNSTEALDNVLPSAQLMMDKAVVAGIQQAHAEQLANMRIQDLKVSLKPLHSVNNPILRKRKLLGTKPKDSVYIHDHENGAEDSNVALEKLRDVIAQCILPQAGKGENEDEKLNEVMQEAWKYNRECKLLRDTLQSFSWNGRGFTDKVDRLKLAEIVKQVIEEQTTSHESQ
Nature of the assay: MAPKAP-K5 assay (FlashPlate, 33P-ATP). Type of assay: biochemical. Conditions: 0.6 μM ATP, 30 minutes at room temperature. The protocol: 3 μM MAPKAP-K5 peptide substrate

A further assay deals with MMP1 expression by SFs. Nature of the assay: 'MMP assay': MMP1 expression by 'complex trigger' activated synovial fibroblasts (MMP1 ELISA). Type of assay: cell-based, human. Conditions: Homo sapiens, Fibroblast, RASFs, 48 hrs. As for the experimental part:
A 384-well format ELISA for measurement of MMP1 is developed. Various primary antibodies are tested, as well as various ELISA protocols. The following protocol is developed and validated to measure MMP1 levels in SF supernatant in 384 well plates: white Lumitrac 600 384 well plates (Greiner) are coated with 2 μg/mL anti-MMP1 antibody MAB1346 (Chemicon). The antibody is diluted in buffer 40 (1.21 g Tris base (Sigma), 0.58 g NaCl (Calbiochem) and 5 ml 10% NaN3 (Sigma) in 1 L milliQ water and adjusted to pH 8.5). After overnight incubation at 4° C., plates are washed with PBS (80 g NaCl, 2 g KCl (Sigma), 11.5 g Na2HPO4.7H2O and 2 g KH2PO4 in 10 L milliQ; pH 7.4) and blocked with 100 μL/well Casein buffer (2% Casein (VWR International) in PBS). Next day, casein buffer is removed from ELISA plates and replaced by 50 μL/well EC buffer (4 g casein, 2.13 g Na2HPO4 (Sigma), 2 g bovine albumin (Sigma), 0.69 g NaH2PO4.H2O (Sigma), 0.5 g CHAPS (Roche), 23.3 g NaCl, 4 mL 0.5 M EDTA pH 8 (Invitrogen), 5 mL 10% NaN3 in 1 L milliQ and adjusted to pH 7.0). 0.25 mM DTT (Sigma) is added to the thawed samples plates. After removal of the EC buffer, 20 μL of sample is transferred to the ELISA plates. After overnight incubation at 4° C. plates are washed twice with PBS and once with PBST (PBS with 0.05% Tween-20 (Sigma)) and incubated with 35 μL/well biotinylated anti-MMP1 antibody solution (R&D). This secondary antibody is diluted in buffer C (0.82 g NaH2PO4.H2O, 4.82 g Na2HPO4, 46.6 g NaCl, 20 g bovine albumin and 4 mL 0.5M EDTA pH 8 in 2 L milliQ and adjusted to pH 7.0) at a concentration of 5 μg/mL. After 2 h of incubation at RT, plates are washed as described above and incubated with 50 μL/well streptavidin-HRP conjugate (Biosource). Streptavidin-HRP conjugate is diluted in buffer C at a concentration of 0.25 μg/mL. After 45 min, plates are washed as described above and incubated for 5 min with 50 μL/well BM Chem ELISA Substrate (Roche). Readout is performed on the Luminoscan Ascent Luminometer (Labsystems) with an integration time of 200 msec or with an Envision reader (Perkin Elmer).
The increase of MMP1 expression by SFs upon treatment with cytokines relevant in the field of RA (TNF-α, IL1β and OSM) or a combination thereof is shown in FIG. 2 as white bars. For this experiment, SFs are seeded in 96 well plates, 3,000 cells/well. 24 h later, the medium is changed to M199 medium supplemented with 1% FBS. One day after the medium change, cytokines or combinations thereof are added to the cultures, each cytokine being added to a final concentration of 25 ng/mL. 72 h after cytokine addition, the supernatant is collected and processed in the MMP1 ELISA as described in the protocol given above. In parallel with this experiment, SFs are triggered, using the same protocol, with the supernatant of THP1 cells (2-fold diluted in M199+1% FBS) treated with the same cytokines or combinations of cytokines for 48 h in M199 medium+1% FBS. The induction of the MMP1 expression by SFs triggered with the supernatants of TNF-α-treated THP1 cells is stronger (>4.5 fold induction) as compared to the SFs triggered with recombinant TNF-α alone (3-fold induction) and almost equals the 5-fold induction obtained by a mixture of 3 purified cytokines (TNF-α, IL1βb, OSM). […] As the role of TNF-α in the RA pathogenesis is validated (TNF-α-blockers such as Infliximab and Etanercept show some efficacy in the treatment of RA patients) and the THP-1 cells are representative for monocytes/macrophages present in the joint of RA patients, the TNF-α-based trigger mixture prepared by contacting THP-1 cells with TNF-α will contain factors present in the joints of RA patients and subsequently is relevant to RA. This TNF-α-based complex trigger, further referred to as the ‘complex trigger’, will further be used as basis for the ‘MMP assay’.
Dexamethasone is shown to dose-dependently reduce amounts of MMP1 produced by complex trigger activated SFs. […]

pEC50, pIC50: −log10 of the molar value.

Usually pIC50 stands for the IC50 on a negative log10 scale, so that one unit is a factor of ten. Broadly, the pEC50 is the negative decadic logarithm of the EC50, by convention in mol/L. Molecule `O=C(O)c1cccc(Nc2ncc(-c3cn[nH]c3)n3ccnc23)c1` [Compound 51] had a pIC50 against MAPKAPK5 of less than 6.00. Further, the pEC50 in the assay with MMP1 expression by SFs is less than 6.00.
`COC(=O)c1cccc(Nc2ncc(-c3cn[nH]c3)n3ccnc23)c1` [Compound 20] showed a negative logarithm of the IC50 (pIC50) against MAPKAPK5 of less than 6.00. Moreover, the pEC50 with MMP1 expression by SFs was less than 6.00.
On MAPKAPK5, `O=C(Cc1ccccc1)Nc1ccc(Nc2ncc(-c3cn[nH]c3)n3ccnc23)cn1` [Compound 200, 2-Phenyl-N-{5-[5-(1H-pyrazol-4-yl)imidazo[1,2-a]pyrazin-8-ylamino]pyridin-2-yl}acetamide] gave a pIC50 of less than 6.00. Moreover, the pEC50 in the assay on MMP1 expression by SFs was 6.30 to 7.00.
The corresponding values for `O=C(O)c1ccc(-c2cnc(Nc3ccc(C(=O)NCc4cccnc4)cc3)c3nccn23)cc1` [Compound 44] are less than 6.00 and less than 6.00.
Taken in the same sequence, the figures for `NC(=O)c1ccc(-c2cnc(Nc3cccc(N4CCOCC4)c3)c3nccn23)cc1` [Compound 172] were less than 6.00 and less than 6.00.
The corresponding values for `CN(C)c1cc(-c2cnc(Nc3ccc(N4CCOCC4)cc3)c3nccn23)ccn1` [Compound 111, [5-(2-Dimethylamino-pyridin-4-yl)-imidazo[1,2-a]pyrazin-8-yl]-(4-morpholin-4-yl-phenyl)-amine] are less than 6.00 and less than 6.00.
At MAPKAPK5, `O=C(O)c1ccc(Nc2ncc(-c3cn[nH]c3)n3ccnc23)cc1` [Compound 23] gave a pIC50 of less than 6.00. Moreover, the pEC50 in the assay on MMP1 expression by SFs is less than 6.00.
The molecule `O=C1NCc2oc(-c3cnc(Nc4ccc(N5CCOCC5)cc4)c4nccn34)cc21` [Compound 217, 2-[8-(4-Morpholin-4-yl-phenylamino)-imidazo[1,2-a]pyrazin5-yl]-5,6-dihydro-furo[2,3-c]pyrrol-4-one] showed a pIC50 against MAPKAPK5 of 6.30 to 7.00. Also, in the assay on MMP1 expression by SFs, the pEC50 is less than 6.00.
Taken in the same sequence, the figures for `CCN(CC)CCNC(=O)c1ccc(Nc2ncc(-c3cc[nH]c(=O)c3)n3ccnc23)cc1` [Compound 99] were 6.30 to 7.00 and less than 6.00.
The corresponding values for `NC(=O)c1ccc(Nc2ncc(-c3cn[nH]c3)n3cc(Br)nc23)cc1` [Compound 37] are less than 6.00 and less than 6.00.
The corresponding values for `COc1cc(Nc2ncc(-c3csc(C(N)=O)c3)n3ccnc23)ccc1C(=O)NCc1ccccc1` [Compound 191] are less than 6.00 and less than 6.00.
At MAPKAPK5, `CN1CCN(c2ccc(Nc3ncc(-c4ccc(C(N)=O)c(N(C)C)c4)n4ccnc34)cc2)CC1` [Compound 126, 2-Dimethylamino-4-{8-[4-(4-methyl-piperazin-1-yl)-phenylamino]-imidazo[1,2-a]pyrazin-5-yl}-benzamide] had a negative-log IC50 (pIC50) of less than 6.00. Further, in the assay on MMP1 expression by SFs, the pEC50 was less than 6.00.
`c1cn2c(-c3cn[nH]c3)cnc(NCc3ccc(N4CCOCC4)cc3)c2n1` [Compound 8] showed a pIC50 on MAPKAPK5 of less than 6.00.
`CCc1cnc2c(Nc3ccc(N4CCOCC4)cc3)ncc(-c3cn[nH]c3)n12` [Compound 189, [3-Ethyl-5-(1H-pyrazol-4-yl)imidazo[1,2-a]pyrazin-8-yl]-(4-morpholin-4-yl-phenyl)amine]: in the assay with MMP1 expression by SFs, the pEC50 was 6.00 to 6.30.
The molecule `CN1CCN(c2ccc(Nc3ncc(-c4ccc(C(N)=O)cc4)n4ccnc34)cc2)CC1` [Compound 26] had a pIC50 against MAPKAPK5 of 6.00 to 6.30.
Same read-out and setting: as for `CC(C)N1CCN(c2ccc(Nc3ncc(-c4cc5c(s4)C(=O)NC5)n4ccnc34)cc2)CC1` [Compound 228], the figure is 6.30 to 7.00; as for `CCN(CCO)c1ccc(Nc2ncc(-c3ccc(O)cc3C)n3ccnc23)cc1` [Compound 3], less than 6.00; as for `O=C1NCc2cc(-c3cnc(Nc4cncnc4)c4nccn34)ccc21` [Compound 230], 6.30 to 7.00.
The same measure, in the same setting: as for `CCc1cnc2c(Nc3ccc(N4CCOCC4)cc3)ncc(-c3cc[nH]c(=O)c3)n12` [Compound 180], the figure is less than 6.00.
In the case of `COc1cc(Nc2ncc(-c3cn[nH]c3)n3ccnc23)ccc1C(=O)NCc1ccc(C)nc1` [Compound 184, 2-Methoxy-N-(6-methylpyridin-3-ylmethyl)-4-[5-(1H-pyrazol-4-yl)imidazo[1,2-a]pyrazin-8-ylamino]benzamide], the pEC50 in the assay on MMP1 expression by SFs is 6.30 to 7.00.
